Tests used:
[1] = target: T1, cytosolic kinase domain of KDR kinase (Homo sapiens, UniProt P35968); test: KDR Assay (ELISA, poly(Glu4;Tyr1) phosphorylation); type: biochemical; settings: 3.3 μM ATP, 60 minutes at room temperature
T1 construct: The cytosolic kinase domain of KDR kinase was expressed as a 6His fusion protein in Sf9 insect cells; 6His; made in house; host or cells: Sf9 insect cells
Description: The cytosolic kinase domain of KDR kinase was expressed as a 6His fusion protein in Sf9 insect cells. The KDR kinase domain fusion protein was purified over a Ni++ chelating column. Ninety-six well ELISA plates were coated with 5 μg poly(Glu4;Tyr1) (Sigma Chemical Co., St Louis, Mo.) in 100 μl HEPES buffer (20 mM HEPES, pH 7.5, 150 mM NaCl, 0.02% Thimerosal) at 4° overnight. Before use, the plate was washed with HEPES, NaCl buffer and the plates were blocked with 1% BSA, 0.1% Tween 20 in HEPES, NaCl buffer.
Test compounds were serially diluted in 100% DMSO from 4 mM to 0.12 μM in half-log dilutions. These dilutions were further diluted twenty fold in H2O to obtain compound solutions in 5% DMSO. Following loading of the assay plate with 85 μl of assay buffer (20 mM HEPES, pH 7.5, 100 mM KCl, 10 mM MgCl2, 3 mM MnCl2, 0.05% glycerol, 0.005% Triton X-100, 1 mM-mercaptoethanol, with or without 3.3 μM ATP), 5 μl of the diluted compounds were added to a final assay volume of 100 μl. Final concentrations were between 10 μM, and 0.3 nM in 0.25% DMSO. The assay was initiated by the addition of 10 μl (30 ng) of KDR kinase domain.
The assay was incubated with test compound or vehicle alone with gentle agitation at room temperature for 60 minutes. The wells were washed and phosphotyrosines (PY) were probed with an anti-phosphotyrosine (PY), mAb clone 4G10 (Upstate Biotechnology, Lake Placid, N.Y.). PY/anti-PY complexes were detected with an anti-mouse IgG/HRP conjugate (Amersham International plc, Buckinghamshire, England). Phosphotyrosine was quantitated by incubating with 100 μl 3,3′,5,5′tetramethylbenzidine solution (Kirkegaard and Perry, TMB Microwell 1 Component peroxidase substrate). Color development was arrested by the addition of 100 μl 1% HCl-based stop solution (Kirkegaard and Perry, TMB 1 Component Stop Solution).
Optical densities were determined spectrophotometrically at 450 nm in a 96-well plate reader, SpectraMax 250 (Molecular Devices). Background (no ATP in assay) OD values were subtracted from all ODs and the percent inhibition was calculated according to the equation: [formula]

[2] = target: T2, full length KDR receptor in NIH3T3 cells (Homo sapiens, UniProt P35968); test: Cell Mechanistic Assay-Inhibition of 3T3 KDR Phosphorylation; type: cell-based; settings: NIH3T3 cells expressing KDR, VEGF 30 ng/ml stimulation
T2 construct: NIH3T3 cells expressing the full length KDR receptor were grown in DMEM; expressed in transfected cells; host or cells: NIH3T3 cells (G418 selection)
Description: NIH3T3 cells expressing the full length KDR receptor were grown in DMEM (Life Technologies, Inc., Grand Island, N.Y.) supplemented with 10% newborn calf serum, low glucose, 25 mM/L sodium pyruvate, pyridoxine hydrochloride and 0.2 mg/ml of G418 (Life Technologies Inc., Grand Island, N.Y.). The cells were maintained in collagen I-coated T75 flasks (Becton Dickinson Labware, Bedford, Mass.) in a humidified 5% CO2 atmosphere at 37° C.
Fifteen thousand cells were plated into each well of a collagen I-coated 96-well plate in the DMEM growth medium. Six hours later, the cells were washed and the medium was replaced with DMEM without serum. After overnight culture to quiesce the cells, the medium was replaced by Dulbecco's phosphate-buffered saline (Life Technologies Inc., Grand Island, N.Y.) with 0.1% bovine albumin (Sigma Chemical Co., St Louis, Mo.). After adding various concentrations (0-300 nM) of test compounds to the cells in 1% final concentration of DMSO, the cells were incubated at room temperature for 30 minutes. The cells were then treated with VEGF (30 ng/ml) for 10 minutes at room temperature. Following VEGF stimulation, the buffer was removed and the cells were lysed by addition of 150 μl of extraction buffer (50 mM Tris, pH 7.8, supplemented with 10% glycerol, 50 mM BGP, 2 mM EDTA, 10 mM NaF, 0.5 mM NaVO4, and 0.3% TX-100) at 4° C. for 30 minutes.
To assess receptor phosphorylation, 100 microliters of each cell lysate was added to the wells of an ELISA plate precoated with 300 ng of antibody C20 (Santa Cruz Biotechnology, Inc., Santa Cruz, Calif.). Following a 60-minute incubation, the plate was washed and bound KDR was probed for phosphotyrosine using an anti-phosphotyrosine mAb clone 4G10 (Upstate Biotechnology, Lake Placid, N.Y.). The plate was washed and wells were incubated with anti-mouse IgG/HRP conjugate (Amersham International plc, Buckinghamshire, England) for 60 minutes. Wells were washed and phosphotyrosine was quantitated by addition of 100 μl per well of 3,3′,5,5′tetramethylbenzidine (Kirkegaard and Perry, TMB Microwell 1 Component peroxidase substrate) solution. Color development was arrested by the addition of 100 μl 1% HCl based stop solution (Kirkegaard and Perry, TMB 1 Component Stop Solution).
Optical densities (OD) were determined spectrophotometrically at 450 nm in a 96-well plate reader (SpectraMax 250, Molecular Devices). Background (no VEGF added) OD values were subtracted from all ODs and percent inhibition was calculated according to the equation: [formula]
IC50s were determined on some of the exemplary materials with a least squares analysis program using compound concentration versus percent inhibition. Compounds that have IC50≦20 nM in this assay include those of Examples 2, 6, 10, 11, 14, 23, 96, 101, 102, 103, 104, 105. Compounds that have IC50 values between 20 nM and 50 nM include those of examples 1, 4, 8, 9, 12, 13, 17, 24, 93, 98. Compounds that have IC50 values between 50 nM and 400 nM include those of examples 97, 99, and 100.

T2 sequence (P35968 20-1356): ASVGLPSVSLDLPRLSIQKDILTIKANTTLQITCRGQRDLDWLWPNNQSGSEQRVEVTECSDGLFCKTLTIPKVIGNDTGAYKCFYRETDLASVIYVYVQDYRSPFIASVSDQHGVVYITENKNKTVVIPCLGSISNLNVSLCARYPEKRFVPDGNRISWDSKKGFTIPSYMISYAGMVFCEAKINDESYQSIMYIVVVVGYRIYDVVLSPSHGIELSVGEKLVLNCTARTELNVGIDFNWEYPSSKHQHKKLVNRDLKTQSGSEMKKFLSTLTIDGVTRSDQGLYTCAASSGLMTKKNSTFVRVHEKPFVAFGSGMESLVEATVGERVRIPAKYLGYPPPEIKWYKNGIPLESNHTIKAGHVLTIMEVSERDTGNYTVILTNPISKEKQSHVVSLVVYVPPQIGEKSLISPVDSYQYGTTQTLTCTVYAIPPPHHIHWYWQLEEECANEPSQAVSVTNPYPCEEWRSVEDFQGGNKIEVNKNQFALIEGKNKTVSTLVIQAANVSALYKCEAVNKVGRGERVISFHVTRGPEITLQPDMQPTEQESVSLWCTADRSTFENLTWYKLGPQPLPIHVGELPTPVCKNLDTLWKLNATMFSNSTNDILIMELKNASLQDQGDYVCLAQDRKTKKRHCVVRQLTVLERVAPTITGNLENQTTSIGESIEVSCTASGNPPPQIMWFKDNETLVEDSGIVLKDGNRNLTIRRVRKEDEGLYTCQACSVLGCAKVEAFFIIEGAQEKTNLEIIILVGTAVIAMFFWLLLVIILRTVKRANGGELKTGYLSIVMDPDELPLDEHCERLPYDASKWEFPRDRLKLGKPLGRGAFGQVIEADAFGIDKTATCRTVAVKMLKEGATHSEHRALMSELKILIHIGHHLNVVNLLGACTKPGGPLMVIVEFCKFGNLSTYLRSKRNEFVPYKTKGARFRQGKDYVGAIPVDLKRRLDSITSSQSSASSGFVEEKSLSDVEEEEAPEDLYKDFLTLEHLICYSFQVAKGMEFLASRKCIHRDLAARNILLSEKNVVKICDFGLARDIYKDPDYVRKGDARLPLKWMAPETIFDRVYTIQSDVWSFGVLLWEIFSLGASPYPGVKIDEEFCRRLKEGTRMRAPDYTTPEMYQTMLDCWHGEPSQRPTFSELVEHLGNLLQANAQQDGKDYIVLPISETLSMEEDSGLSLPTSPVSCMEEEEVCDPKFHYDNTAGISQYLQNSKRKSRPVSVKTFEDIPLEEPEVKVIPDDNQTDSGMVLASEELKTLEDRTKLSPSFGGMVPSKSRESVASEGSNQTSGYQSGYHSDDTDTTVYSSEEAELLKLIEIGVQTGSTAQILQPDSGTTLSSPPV
T1 sequence (P35968 834-1162 limits assumed): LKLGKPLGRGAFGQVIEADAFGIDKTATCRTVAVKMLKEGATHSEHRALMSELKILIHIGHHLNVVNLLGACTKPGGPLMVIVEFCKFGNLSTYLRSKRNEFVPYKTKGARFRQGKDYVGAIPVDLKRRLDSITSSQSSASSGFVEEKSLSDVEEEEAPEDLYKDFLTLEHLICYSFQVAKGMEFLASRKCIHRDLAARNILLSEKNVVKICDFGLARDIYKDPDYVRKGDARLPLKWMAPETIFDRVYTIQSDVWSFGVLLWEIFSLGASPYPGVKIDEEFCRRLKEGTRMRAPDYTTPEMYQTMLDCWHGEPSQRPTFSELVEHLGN

IC50 [1]	IC50 [2]	melting point	Compound
≤ 0.1 µM		203 to 205 °C (dec.)	Clc1ccc(Nc2nnc(OCc3ccncc3)c3sccc23)cc1 [Example 8, 4-(4-chlorophenylamino)-7-(4-pyridylmethoxy)thieno-[2,3-d]pyridazine]
≤ 0.1 µM	≤ 0.02 µM		Brc1cccc(Nc2nnc(Nc3ccc4ncsc4c3)c3ccccc23)c1 [Example 101]
≤ 0.1 µM	≤ 0.02 µM	233 °C	NC(=O)c1cc(COc2nnc(Nc3ccc(Cl)cc3)c3ccsc23)ccn1 [Example 10, 4-(4-chlorophenylamino)-7-(2-aminocarbonyl-4-pyridylmethoxy)thieno-[2,3-d]pyridazine]
	≤ 0.02 µM		Clc1ccc(Nc2nnc(Nc3ccc4ncsc4c3)c3sccc23)cc1 [Example 23]
≤ 0.1 µM	≤ 0.02 µM		c1ccc2c(Nc3ccc4c(c3)CCC4)ncc(Sc3ccncc3)c2c1 [Example 2, 1-(indan-5-ylamino)-4-(4-pyridylthio)isoquinoline]
≤ 0.1 µM	≤ 0.02 µM		Clc1ccc(Nc2nnc(Nc3ccc4nn[nH]c4c3)c3ccccc23)cc1 [Example 96]
≤ 0.1 µM	≤ 0.02 µM		CNC(=O)c1cc(COc2nnc(Nc3ccc(Cl)cc3)c3ccsc23)ccn1 [Example 11, 4-(4-chlorophenylamino)-7-(2-methylaminocarbonyl-4-pyridylmethoxy)thieno-[2,3-d]pyridazine]
≤ 0.1 µM	≤ 0.02 µM		COc1cccc(Nc2nnc(Nc3ccc4ncsc4c3)c3ccccc23)c1 [Example 103]
≤ 0.1 µM	0.02 to 0.05 µM		Clc1ccc(Nc2nnc(OCc3ccncc3)c3occc23)cc1 [Example 9, 4-(4-chlorophenylamino)-7-(4-pyridylmethoxy)furo[2,3-d]pyridazine]
≤ 0.1 µM	≤ 0.02 µM		CC(C)c1ccc(Nc2nnc(Nc3ccc4ncsc4c3)c3ccccc23)cc1 [Example 102]
≤ 0.1 µM	≤ 0.02 µM		c1ccc2c(Nc3ccc4c(c3)CCC4)ncc(Cc3ccncc3)c2c1 [Example 6, 1-(indan-5-ylamino)-4-(4-pyridylmethyl)-isoquinoline]
≤ 0.1 µM	≤ 0.02 µM		Clc1ccc(Nc2nnc(Nc3ccc4ncsc4c3)c3ccccc23)cc1 [Example 105]

Compound	IC50 [1]	IC50 [2]	melting point
CNC(=O)c1cc(COc2nnc(Nc3ccc(Cl)cc3)c3ccoc23)ccn1 [Example 14, 4-(4-chlorophenylamino)-7-(2-methylaminocarbonyl-4-pyridylmethoxy)furo-[2,3-d]pyridazine]	≤ 0.1 µM	≤ 0.02 µM	

Reference: patent US6689883B1, “Substituted pyridines and pyridazines with angiogenesis inhibiting activity” (Bayer Pharmaceuticals Corporation, priority 1999, dated 2004)
